Assay results published in US20250134845A1, “Fumaric Acid Esters, Inhalation Administration Methods, Pharmaceutical Uses and Compositions” (Emory University, priority 2022, published 2025).
Counter-ions that a name gives are not always drawn.

Columns and labels:
[1] = system: IPF lung fibroblasts; assay: Collagen-1 expression in IPF lung fibroblasts (Western blot, densitometry); format: cell-based, human; details: vs vehicle
Text: Since primary mesenchymal cells isolated from IPF lungs represent a heterogeneous population of both fibroblasts and myofibroblasts “(myo)fibroblasts”, the efficacy of DMF was evaluate on both TGF-beta-induced and established profibrogenic phenotypes of these cells. […]

[2] = system: oxidative stress (ROS, oxidized glutathione, lipid peroxidation); assay: Blood ROS, lung oxidized glutathione and lung lipid peroxidation in aged-injured mice; format: in vivo, mouse; details: for blood ROS levels: aged-injured mice
Method: Oral-DMF (n=7); intranasal-DMF (n=6).
Oral-vehicle (n=5); oral-DMF (n=5); intranasal-vehicle (n=3); intranasal-DMF (n=4).
Oral-vehicle (n=5); oral-DMF, (n=5); intranasal-vehicle (n=4); intranasal-DMF (n=3).
(§1) At 3 weeks post-bleomycin administration, mice were randomly assigned to one of four treatment groups. Between 3-6 weeks post-injury, DMF or vehicle (sterile PBS) was administered daily by oral gavage (240 μg/dose in 150 μL total volume) (Table 1) using a gavage tube. In parallel, mice were anesthetized using isoflurane and administered DMF or vehicle (sterile PBS) daily by intranasal instillation (80 μg/dose in 50 μL total volume) (Table 1). The control animals received vehicle only. Dosing was based on the solubility of this compound in the vehicle in the total volume used for administration (DMF was dissolved in sterile PBS at 42° C. and sonicated for 50 min). Mice were monitored for body-weight changes and survival. Mice were removed from the study when greater than 20% weight loss was observed compared to pre-surgery (day 0) or lack of responsiveness to touch. At 6 weeks post-injury, mice were sacrificed by CO2 inhalation.
(§2) In summary, lung-targeted treatment with DMF via inhaled delivery (as compared to oral delivery) can more effectively rescue local Nrf2 expression levels and promote redox homeostasis in the lungs.

[3] = system: Nrf2; assay: Lung Nrf2 expression in aged-injured mice (densitometric analysis); format: in vivo, mouse
Method: Oral-vehicle (n=7); oral-DMF (n=7); intranasal-vehicle (n=4); intranasal-DMF (n=4).
as §1, §2

[4] = system: aged mice with bleomycin-induced persistent lung fibrosis; assay: Aging murine model of bleomycin-induced persistent lung fibrosis: reversal of established fibrosis; format: in vivo, mouse; details: 3-6 weeks post-injury
Method: as §1, with “C57BL/6 aged (18 month) female mice received an intratracheal instillation of bleomycin (0.02875 U/mouse). DMF was administered daily by oral gavage (240 μg/150 μL in sterile PBS/mouse) or intranasal instillation (80 μg/50 μL in sterile PBS/mouse) from 3-6 weeks post-injury. Lung tissue was assessed by hematoxylin and eosin (H&E) staining for histopathology and Masson's trichrome blue staining for collagen. […] At 3” for “At 3”, “CO2 inhalation. This aging model of bleomycin-induced persistent lung fibrosis enables the evaluation of therapeutic agents for their efficacy in reversing age-dependent established fibrosis. […] Using the same injury model and treatment protocol, aged mice were administered DMF or vehicle daily via intranasal delivery from 3-6 weeks post-injury.” for “CO2 inhalation.”

[5] = system: IPF lung fibroblasts; assay: H2O2 production in IPF lung fibroblasts (Amplex Red assay); format: cell-based, human; details: 24 h
Method: IPF lung fibroblasts were treated with DMF (1 μM) or vehicle (DMSO) followed by treatment TGF-b (2 ng/ml). H2O2 levels were evaluated at 24 h by Amplex™ Red assay.
Culture supernatant was evaluated for H2O2 levels at 24 h by Amplex™ Red assay.
Since primary mesenchymal cells isolated from IPF lungs represent a heterogeneous population of both fibroblasts and myofibroblasts “(myo)fibroblasts”, the efficacy of DMF was evaluate on both TGF-beta-induced and established profibrogenic phenotypes of these cells. To determine if DMF treatment can inhibit fibrogenic responses induced by TGF-beta, cells were pre-treated with DMF or vehicle followed by treatment with TGF-beta for 24 h.

[6] = system: IPF lung fibroblasts; details: sulforaphane treatment (Nrf2 activation); cited from earlier work
[7] = intranasal delivery, 80 μg/dose daily, vs vehicle or oral DMF
[8] = intranasal 80 μg/dose daily, vs vehicle and oral DMF
[9] = oral gavage 240 μg/dose daily, aged mice

| SMILES | TGF-beta-induced expression of collagen-1 ([1]; DMF 1 μM pre-treatment, then TGF-b 2 ng/ml, 48 h) | production of collagen-1 (established pro-fibrotic phenotype) ([1]; DMF 1 μM, no TGF-beta, 24 h) | blood ROS levels ([2]; intranasal delivery, 80 μg/dose daily) | lung lipid peroxidation [2, 7] | lung oxidized glutathione levels [2, 7] | blood ROS levels ([2]; oral administration, 240 μg/dose daily) | lung Nrf2 expression levels ([3]; intranasal delivery, 80 μg/dose daily, aged-injured mice) | lung Nrf2 expression levels ([3]; oral administration, 240 μg/dose daily, aged mice with established fibrosis) | resolution of age-dependent established lung fibrosis (histopathology) ([4]; intranasal 80 μg/dose daily, aged mice) | lung collagen deposition (Masson's trichrome) [4, 8] | lung collagen-1 expression levels [4, 8] | lung fibronectin expression levels [4, 8] | lung hydroxyproline levels [4, 8] | lung fibrosis compared with vehicle-treated mice [4, 9] | resolution of age-dependent established lung fibrosis [4, 9] | TGF-beta-induced production of ROS, specifically H2O2 ([5]; DMF 1 μM pre-treatment, then TGF-b 2 ng/ml, vs vehicle (DMSO)) | production of H2O2 (established pro-fibrotic phenotype) ([5]; DMF 1 μM, no TGF-beta, culture supernatant, vs vehicle) | antioxidant responses in IPF lung fibroblasts [6] | dedifferentiation of IPF myofibroblast [6] |
| --- | --- | --- | --- | --- | --- | --- | --- | --- | --- | --- | --- | --- | --- | --- | --- | --- | --- | --- | --- |
| COC(=O)/C=C/C(=O)OC [DMF, dimethyl fumarate] | inhibition | significantly inhibited | did not impact | significantly reduced | significantly reduced | reduced blood ROS levels | significantly increased | failed to rescue | resulted in resolution | reduced collagen deposition | significantly decreased | significantly decreased | decreased lung hydroxyproline levels | indistinguishable from vehicle-treated mice | failed to promote the resolution | significantly reduced | significantly inhibited |  |  |
| C[S+]([O-])CCCCN=C=S (stereo not shown) [sulforaphane] |  |  |  |  |  |  |  |  |  |  |  |  |  |  |  |  |  | restored antioxidant responses | promoted dedifferentiation |
